Tested on: MV-4-11 cells
Experiment: Gene expression microarray analysis (Affymetrix PrimeView) and GSEA
Assay type: cell-based, human
Set-up: RFU PODN (11730768_x_at) / Fold change /veh PODN (11730768_x_at) / RFU LINC00158 (11744669_a_at) / Fold change /veh LINC00158 (11744669_a_at) / RFU DUSP10 (11751237_a_at) / Fold change /veh DUSP10 (11751237_a_at) / RFU ID3 (11757404_x_at) / Fold change /veh ID3 (11757404_x_at) / RFU PLEKHG5 (11737974_s_at) / Fold change /veh PLEKHG5 (11737974_s_at) / RFU LRRC4B (11730491_at) / Fold change /veh LRRC4B (11730491_at) / RFU GIMAP4 (11747438_a_at) / Fold change /veh GIMAP4 (11747438_a_at) / RFU KRT8 (11758183_x_at) / Fold change /veh KRT8 (11758183_x_at) / RFU CNN1 (11734310_a_at) / Fold change /veh CNN1 (11734310_a_at) / RFU VPS37D (11726825_at) / Fold change /veh VPS37D (11726825_at) / RFU C10orf10 (11716522_x_at) / Fold change /veh C10orf10 (11716522_x_at) / RFU KIR2DL2 /// KIR2DL4 /// KIR2DL5A /// KIR2DL5B /// KIR2DS1 /// KIR2DS2 /// KIR2DS3 /// KIR2DS4 /// KIR3DL3 /// KIR3DL3 /// KIR3DS1 (11738374_at) / Fold change /veh KIR2DL2 /// KIR2DL4 /// KIR2DL5A /// KIR2DL5B /// KIR2DS1 /// KIR2DS2 /// KIR2DS3 /// KIR2DS4 /// KIR3DL3 /// KIR3DL3 /// KIR3DS1 (11738374_at) / RFU C1QL1 (11718748_at) / Fold change /veh C1QL1 (11718748_at) / RFU TMPRSS4 (11747572_a_at) / Fold change /veh TMPRSS4 (11747572_a_at) / RFU HAMP (11756126_x_at) / Fold change /veh HAMP (11756126_x_at) / RFU RNFT2 (11725882_a_at) / Fold change /veh RNFT2 (11725882_a_at) / RFU NR4A2 (11747474_a_at) / Fold change /veh NR4A2 (11747474_a_at) / RFU ABCC12 (11746883_a_at) / Fold change /veh ABCC12 (11746883_a_at) / RFU TMEM136 (11760407_x_at) / Fold change /veh TMEM136 (11760407_x_at) / RFU CLDN22 /// WWC2 (11732394_at) / Fold change /veh CLDN22 /// WWC2 (11732394_at) / RFU HLA-DPB1 (11760878_x_at) / Fold change /veh HLA-DPB1 (11760878_x_at) / RFU SPINT1 (11716480_a_at) / Fold change /veh SPINT1 (11716480_a_at) / RFU GAP43 (11754022_s_at) / Fold change /veh GAP43 (11754022_s_at) / RFU A4GNT (11735810_at) / Fold change /veh A4GNT (11735810_at) / RFU PRB3 (11715151_x_at) / Fold change /veh PRB3 (11715151_x_at) / RFU TUBB4B (11761932_at) / Fold change /veh TUBB4B (11761932_at) / RFU CAPN14 (11732068_a_at) / Fold change /veh CAPN14 (11732068_a_at) / RFU TMCC2 (11721928_a_at) / Fold change /veh TMCC2 (11721928_a_at) / RFU IRGQ (11745062_a_at) / Fold change /veh IRGQ (11745062_a_at) / RFU FAM174B (11720279_a_at) / Fold change /veh FAM174B (11720279_a_at) / RFU TMPRSS4 (11748680_a_at) / Fold change /veh TMPRSS4 (11748680_a_at) / RFU FAM212B (11763350_a_at) / Fold change /veh FAM212B (11763350_a_at) / RFU PLEKHG5 (11743358_a_at) / Fold change /veh PLEKHG5 (11743358_a_at) / RFU ZSCAN30 (11745921_a_at) / Fold change /veh ZSCAN30 (11745921_a_at) / RFU CMKLR1 (11741424_a_at) / Fold change /veh CMKLR1 (11741424_a_at) / RFU LOC101060620 /// MAPK8IP1 (11723275_at) / Fold change /veh LOC101060620 /// MAPK8IP1 (11723275_at) / RFU SPTSSB (11747773_x_at) / Fold change /veh SPTSSB (11747773_x_at) / RFU PRSS12 (11739890_at) / Fold change /veh PRSS12 (11739890_at) / RFU BIN1 (11741810_x_at) / Fold change /veh BIN1 (11741810_x_at) / RFU WNT11 (11732464_a_at) / Fold change /veh WNT11 (11732464_a_at) / RFU C10orf10 (11716521_a_at) / Fold change /veh C10orf10 (11716521_a_at) / RFU C5orf56 (11738089_at) / Fold change /veh C5orf56 (11738089_at) / RFU CYB561 (11721691_x_at) / Fold change /veh CYB561 (11721691_x_at) / RFU ANKRD19P (11752326_a_at) / Fold change /veh ANKRD19P (11752326_a_at) / RFU OR2T12 /// OR2T33 /// OR2T8 (11738714_s_at) / Fold change /veh OR2T12 /// OR2T33 /// OR2T8 (11738714_s_at) / RFU VCAN (11748164_a_at) / Fold change /veh VCAN (11748164_a_at) / RFU JSRP1 (11732532_at) / Fold change /veh JSRP1 (11732532_at) / RFU KRTAP10-11 (11738290_x_at) / Fold change /veh KRTAP10-11 (11738290_x_at) / RFU MYO3A (11730013_a_at) / Fold change /veh MYO3A (11730013_a_at) / RFU EBF3 (11725865_a_at) / Fold change /veh EBF3 (11725865_a_at) / RFU CAMK2N1 (11719241_x_at) / Fold change /veh CAMK2N1 (11719241_x_at) / RFU C5orf56 (11738088_a_at) / Fold change /veh C5orf56 (11738088_a_at) / RFU OLFML3 (11715873_a_at) / Fold change /veh OLFML3 (11715873_a_at) / RFU LOC100653217 /// NTM (11731650_a_at) / Fold change /veh LOC100653217 /// NTM (11731650_a_at) / RFU MAPK11 (11762145_a_at) / Fold change /veh MAPK11 (11762145_a_at) / RFU FIZ1 (11724087_x_at) / Fold change /veh FIZ1 (11724087_x_at) / RFU OASL (11726364_x_at) / Fold change /veh OASL (11726364_x_at) / RFU SOX15 (11748057_x_at) / Fold change /veh SOX15 (11748057_x_at) / RFU CD79A (11719716_a_at) / Fold change /veh CD79A (11719716_a_at) / RFU HIST1H1D (11736915_at) / Fold change /veh HIST1H1D (11736915_at) / RFU CASKIN2 (11723855_a_at) / Fold change /veh CASKIN2 (11723855_a_at) / RFU LOC730098 (11760151_x_at) / Fold change /veh LOC730098 (11760151_x_at) / RFU OR4N2 (11742367_at) / Fold change /veh OR4N2 (11742367_at) / RFU PRRT2 (11749266_a_at) / Fold change /veh PRRT2 (11749266_a_at) / RFU SNX32 (11753110_a_at) / Fold change /veh SNX32 (11753110_a_at) / RFU CDHR5 (11726645_a_at) / Fold change /veh CDHR5 (11726645_a_at) / RFU RCAN1 (11760418_a_at) / Fold change /veh RCAN1 (11760418_a_at) / RFU FAM167A (11723789_a_at) / Fold change /veh FAM167A (11723789_a_at) / RFU FAM26E (11764081_at) / Fold change /veh FAM26E (11764081_at) / RFU ISYNA1 (11749810_s_at) / Fold change /veh ISYNA1 (11749810_s_at) / RFU ACY1 (11761880_at) / Fold change /veh ACY1 (11761880_at) / RFU 11764098_at / Fold change /veh 11764098_at / RFU SAMD14 (11745864_x_at) / Fold change /veh SAMD14 (11745864_x_at) / RFU NPB (11741838_a_at) / Fold change /veh NPB (11741838_a_at) / RFU TMPRSS6 (11731388_a_at) / Fold change /veh TMPRSS6 (11731388_a_at) / RFU KRTAP10-2 (11738614_at) / Fold change /veh KRTAP10-2 (11738614_at) / RFU ARHGAP8 /// PRR5-ARHGAP8 (11727945_x_at) / Fold change /veh ARHGAP8 /// PRR5-ARHGAP8 (11727945_x_at) / RFU KRTAP5-7 /// NADSYN1 (11734609_at) / Fold change /veh KRTAP5-7 /// NADSYN1 (11734609_at) / RFU RASL12 (11751679_a_at) / Fold change /veh RASL12 (11751679_a_at) / RFU CDKN2B (11736163_a_at) / Fold change /veh CDKN2B (11736163_a_at) / RFU PRF1 (11729649_at) / Fold change /veh PRF1 (11729649_at) / RFU, ZNF638 /// ZNF638-IT1 / Fold change vs veh, ZNF638 /// ZNF638-IT1 / RFU, PANK3 / Fold change vs veh, PANK3 / RFU, SH3YL1 / Fold change vs veh, SH3YL1 / RFU, ZEB2 / Fold change vs veh, ZEB2 / RFU, NRIP1 / Fold change vs veh, NRIP1 / RFU, PTTG1IP / Fold change vs veh, PTTG1IP / RFU, CAPN2 / Fold change vs veh, CAPN2 / RFU, MED14 / Fold change vs veh, MED14 / RFU, SNORA58 / Fold change vs veh, SNORA58 / RFU, C1orf63 / Fold change vs veh, C1orf63 / RFU, LRRFIP1 / Fold change vs veh, LRRFIP1 / RFU, NDUFAF7 / Fold change vs veh, NDUFAF7 / RFU, SLC12A2 / Fold change vs veh, SLC12A2 / RFU, IBTK / Fold change vs veh, IBTK / RFU, ESF1 / Fold change vs veh, ESF1 / Fold change vs veh, TMEM50B / RFU, TAOK1 / Fold change vs veh, TAOK1 / RFU, ACBD3 / Fold change vs veh, ACBD3 / RFU, TMA16 / Fold change vs veh, TMA16 / RFU, RWDD3 / Fold change vs veh, RWDD3 / RFU, BCAT1 / Fold change vs veh, BCAT1 / RFU, EDEM3 / Fold change vs veh, EDEM3 / RFU, TMEM33 / Fold change vs veh, TMEM33 / RFU, WDR75 / Fold change vs veh, WDR75 / RFU, AHCTF1 / Fold change vs veh, AHCTF1 / RFU, TFRC / Fold change vs veh, TFRC / RFU, ZDHHC17 / Fold change vs veh, ZDHHC17 / RFU, NOM1 / Fold change vs veh, NOM1 / RFU, ARL8B / Fold change vs veh, ARL8B / RFU, ZBTB11 / Fold change vs veh, ZBTB11 / RFU, TAMM41 / Fold change vs veh, TAMM41 / RFU, KIAA1704 /// LOC100996395 / Fold change vs veh, KIAA1704 /// LOC100996395 / RFU, ING1 / Fold change vs veh, ING1 / RFU, TRMT61B / Fold change vs veh, TRMT61B / RFU, FUBP3 / Fold change vs veh, FUBP3 / RFU, TP53 / Fold change vs veh, TP53 / RFU, TNKS2 / Fold change vs veh, TNKS2 / RFU, ZFP14 / Fold change vs veh, ZFP14 / RFU, ACTR2 / Fold change vs veh, ACTR2 / RFU, PPP3R1 / Fold change vs veh, PPP3R1 / RFU, PIK3R1 / Fold change vs veh, PIK3R1 / RFU, HNRNPA1 / Fold change vs veh, HNRNPA1 / RFU, RNF170 / Fold change vs veh, RNF170 / RFU, ZNF28 / Fold change vs veh, ZNF28 / RFU, RNGTT / Fold change vs veh, RNGTT / RFU, OGT / Fold change vs veh, OGT / RFU, BRD1 / Fold change vs veh, BRD1 / RFU, MARS / Fold change vs veh, MARS / RFU, ZNF655 / Fold change vs veh, ZNF655 / RFU, FAHD1 / Fold change vs veh, FAHD1 / RFU, BDP1 / Fold change vs veh, BDP1 / RFU, LRRCC1 / Fold change vs veh, LRRCC1 / RFU, ARID1A / Fold change vs veh, ARID1A / RFU, ZNF146 / Fold change vs veh, ZNF146 / RFU, ZNF330 / Fold change vs veh, ZNF330 / RFU, GPN3 / Fold change vs veh, GPN3 / RFU, C9orf123 / Fold change vs veh, C9orf123 / RFU, N4BP2L2 / Fold change vs veh, N4BP2L2 / RFU, ARFIP1 / Fold change vs veh, ARFIP1 / RFU, FAM179B / Fold change vs veh, FAM179B / RFU, BCL10 / Fold change vs veh, BCL10 / RFU, UHRF1BP1L / Fold change vs veh, UHRF1BP1L / RFU, BET1 / Fold change vs veh, BET1 / RFU, CNOT2 / Fold change vs veh, CNOT2 / RFU, ZNF268 / Fold change vs veh, ZNF268 / Fold change vs veh, ZNF507 / RFU, DGCR2 / Fold change vs veh, DGCR2 / RFU, WDSUB1 / Fold change vs veh, WDSUB1 / Fold change vs veh, HSP90B1 /// MIR3652 / RFU, ADSS / Fold change vs veh, ADSS / RFU, GK / Fold change vs veh, GK / RFU, ZNF148 / Fold change vs veh, ZNF148 / RFU, TAF9 / Fold change vs veh, TAF9 / RFU, SLC1A5 / Fold change vs veh, SLC1A5 / RFU, SLMO2 / Fold change vs veh, SLMO2 / RFU, ABCC4 / Fold change vs veh, ABCC4 / RFU, LOC101060439 /// RAP1B / Fold change vs veh, LOC101060439 /// RAP1B / RFU, RFX7 / Fold change vs veh, RFX7 / RFU, GTPBP10 / Fold change vs veh, GTPBP10 / RFU, CNEP1R1 / Fold change vs veh, CNEP1R1 / RFU, BIVM-ERCC5 /// ERCC5 / Fold change vs veh, BIVM-ERCC5 /// ERCC5 / RFU, ILF3 / Fold change vs veh, ILF3 / RFU 11762660_at / Fold change /veh 11762660_at / RFU VCAN (11757783_s_at) / Fold change /veh VCAN (11757783_s_at) / RFU DDX43 (11728927_at) / Fold change /veh DDX43 (11728927_at) / RFU KRT8 (11758188_x_at) / Fold change /veh KRT8 (11758188_x_at) / RFU NKD1 (11759106_at) / Fold change /veh NKD1 (11759106_at) / RFU SRD5A1 (11742802_a_at) / Fold change /veh SRD5A1 (11742802_a_at) / RFU TPSAB1 /// TPSB2 (11721975_s_at) / Fold change /veh TPSAB1 /// TPSB2 (11721975_s_at) / RFU GSTM3 (11746129_a_at) / Fold change /veh GSTM3 (11746129_a_at) / RFU IL23R (11737362_x_at) / Fold change /veh IL23R (11737362_x_at) / RFU TMEM51 (11727254_a_at) / Fold change /veh TMEM51 (11727254_a_at) / RFU PIWIL2 (11732686_x_at) / Fold change /veh PIWIL2 (11732686_x_at) / RFU ORM1 (11744905_x_at) / Fold change /veh ORM1 (11744905_x_at) / RFU CCDC152 (11743942_at) / Fold change /veh CCDC152 (11743942_at) / RFU ECM1 (11717891_a_at) / Fold change /veh ECM1 (11717891_a_at) / RFU IL23R (11748794_a_at) / Fold change /veh IL23R (11748794_a_at) / RFU TNFAIP8L3 (11732012_x_at) / Fold change /veh TNFAIP8L3 (11732012_x_at) / RFU MBOAT4 (11741988_at) / Fold change /veh MBOAT4 (11741988_at) / RFU 11764193_at / Fold change /veh 11764193_at / RFU TMEM53 (11763286_at) / Fold change /veh TMEM53 (11763286_at) / RFU MAGEB2 (11727129_at) / Fold change /veh MAGEB2 (11727129_at) / RFU TMEM200A (11744735_a_at) / Fold change /veh TMEM200A (11744735_a_at) / RFU CCDC152 (11751479_a_at) / Fold change /veh CCDC152 (11751479_a_at) / RFU FAM211A (11726209_a_at) / Fold change /veh FAM211A (11726209_a_at) / RFU RGS16 (11746705_a_at) / Fold change /veh RGS16 (11746705_a_at) / RFU VCAN (11755009_s_at) / Fold change /veh VCAN (11755009_s_at) / RFU RHOB (11743442_s_at) / Fold change /veh RHOB (11743442_s_at) / RFU RGS16 (11720943_a_at) / Fold change /veh RGS16 (11720943_a_at) / RFU RGS16 (11720944_at) / Fold change /veh RGS16 (11720944_at) / RFU, VPS4B / Fold change vs veh, VPS4B / RFU, CREB1 / Fold change vs veh, CREB1 / RFU, DNAJC13 / Fold change vs veh, DNAJC13 / RFU, GNAQ / Fold change vs veh, GNAQ / RFU, CDK5R1 / Fold change vs veh, CDK5R1 / RFU, ZRANB3 / Fold change vs veh, ZRANB3 / RFU, CUL4A / Fold change vs veh, CUL4A / RFU, CCNY / Fold change vs veh, CCNY / RFU, UFL1 / Fold change vs veh, UFL1 / RFU, COG3 / Fold change vs veh, COG3 / RFU, DIAPH2 / Fold change vs veh, DIAPH2 / RFU, SKA2 / Fold change vs veh, SKA2 / RFU, AFF3 / Fold change vs veh, AFF3 / RFU, LMF1 / Fold change vs veh, LMF1 / RFU, IPO11 / Fold change vs veh, IPO11 / RFU, DFFB / Fold change vs veh, DFFB / RFU, FOXP1 / Fold change vs veh, FOXP1 / RFU, CARD8 / Fold change vs veh, CARD8 / RFU, STRN3 / Fold change vs veh, STRN3 / RFU, ADK / Fold change vs veh, ADK / RFU, RASSF2 / Fold change vs veh, RASSF2 / RFU, WIPF1 / Fold change vs veh, WIPF1 / RFU, LARP1B / Fold change vs veh, LARP1B / RFU, RASA1 / Fold change vs veh, RASA1 / RFU, RB1 / Fold change vs veh, RB1 / RFU, PPFIA1 / Fold change vs veh, PPFIA1 / RFU, MAT2A / Fold change vs veh, MAT2A / RFU, CCT5 / Fold change vs veh, CCT5 / RFU, WDR92 / Fold change vs veh, WDR92 / RFU, CUX1 / Fold change vs veh, CUX1 / RFU, TTC7A / Fold change vs veh, TTC7A / RFU, TMEM135 / Fold change vs veh, TMEM135 / RFU, DEPTOR / Fold change vs veh, DEPTOR / RFU, CPM / Fold change vs veh, CPM / RFU, DNAJB6 / Fold change vs veh, DNAJB6 / RFU, CACNA2D3 / Fold change vs veh, CACNA2D3 / RFU, DTX4 / Fold change vs veh, DTX4 / RFU, TFCP2 / Fold change vs veh, TFCP2 / RFU, GMCL1 /// GMCL1P1 / Fold change vs veh, GMCL1 /// GMCL1P1 / RFU, AEBP2 / Fold change vs veh, AEBP2 / RFU, SNHG1 /// SNORD22 /// SNORD25 /// SNORD26 /// SNORD27 /// SNORD28 /// SNORD29 /// SNORD31 / Fold change vs veh, SNHG1 /// SNORD22 /// SNORD25 /// SNORD26 /// SNORD27 /// SNORD28 /// SNORD29 /// SNORD31 / Fold change (Aza/veh), C12orf56 (ProbeSet 11735607_a_at) / Fold change (ACY-1035/veh), C12orf56 (ProbeSet 11735607_a_at) / Fold change (Aza/veh), FGFR1OP (ProbeSet 11751329_s_at) / Fold change (ACY-1035/veh), FGFR1OP (ProbeSet 11751329_s_at) / Fold change (Aza/veh), VPS36 (ProbeSet 11739960_a_at) / Fold change (ACY-1035/veh), VPS36 (ProbeSet 11739960_a_at) / RFU SYPL1 (11715823_x_at) / Fold change /veh SYPL1 (11715823_x_at) / RFU IGFBP7 (11715501_s_at) / Fold change /veh IGFBP7 (11715501_s_at) / RFU REEP3 (11722064_at) / Fold change /veh REEP3 (11722064_at) / RFU IGLL1 (11728026_x_at) / Fold change /veh IGLL1 (11728026_x_at): dose or concentration left out as unconfirmed
Conditions: ProbeSet 11727545_at; LIST B

Nc1ncn([C@@H]2O[C@H](CO)[C@@H](O)[C@H]2O)c(=O)n1 [azacitidine]
RFU, PANK3: 82.98 RFU

From paper PMC5218480 (PLoS ONE, 2017)
